The source made the active and inactive calls. The rule behind the calls is not given here.
Legend:
PC-3 [1] = assay: Antiproliferative activity against human PC3 cells at 2 uM after 120 hrs by MTT assay relative to DMSO; assay type: functional
PC-3 [2] = assay: Antiproliferative activity against human PC3 cells at 10 uM after 120 hrs by MTT assay relative to DMSO; assay type: functional
PC-3 [3] = assay: Antiproliferative activity against human PC3 cells at 5 uM after 120 hrs by MTT assay relative to DMSO; assay type: functional
PC-3 [4] = assay: Antiproliferative activity against human PC3 cells at 1 uM after 120 hrs by MTT assay relative to DMSO; assay type: functional
PC-3 [5] = assay: Antiproliferative activity against human PC3 cells at 500 nM after 120 hrs by MTT assay relative to DMSO; assay type: functional
[6] = target: Cyclin-dependent kinase 1 (Homo sapiens) (UniProt P06493); assay: Effect on Cdc2 expressed in HEK293 cells assessed as effect on Cdc2:Cdc25C interaction complexes in presence of camptothecin by EYFP and/or YFP Venus fragment based reporter gene assay; assay type: cell-based
PC-3 [7] = assay: Antiproliferative activity against human PC3 cells at 50 uM after 120 hrs by MTT assay relative to DMSO; assay type: functional
[8] = target: Transcription factor Jun (Homo sapiens) (UniProt P05412); assay: Inhibition of c-Jun expressed in HEK293 cells assessed as induction of protein interaction in presence of camptothecin with Pin1 by EYFP based reporter gene assay; assay type: cell-based
[9] = target: Cyclin-dependent kinase 1 (Homo sapiens) (UniProt P06493); assay: Effect on Cdc2 expressed in HEK293 cells assessed as effect on Cdc2:Cdc25A interaction complexes in presence of camptothecin by EYFP and/or YFP Venus fragment based reporter gene assay; assay type: cell-based
Cofilin-1 (Homo sapiens) = Cofilin-1 (Homo sapiens) (UniProt P23528); assay: Effect on cofilin1 expressed in HEK293 cells assessed as effect on cofilin1; Limk2 interaction complexes in presence of camptothecin by EYFP and/or YFP Venus fragment based reporter gene assay; assay type: cell-based
PC-3 [10] = assay: Antiproliferative activity against human PC3 cells at 30 uM after 120 hrs by MTT assay relative to DMSO; assay type: functional
[11] = target: Transcription factor Jun (Homo sapiens) (UniProt P05412); assay: Activation of c-Jun expressed in HEK293 cells assessed as induction of protein interaction with Pin1 by EYFP based reporter gene assay; assay type: cell-based
PC-3 [12] = assay: Antiproliferative activity against human PC3 cells at 25 uM after 120 hrs by MTT assay relative to DMSO; assay type: functional

Chain of Cyclin-dependent kinase 1 (Homo sapiens) (P06493 whole entry, looked up, the tested form may be a part): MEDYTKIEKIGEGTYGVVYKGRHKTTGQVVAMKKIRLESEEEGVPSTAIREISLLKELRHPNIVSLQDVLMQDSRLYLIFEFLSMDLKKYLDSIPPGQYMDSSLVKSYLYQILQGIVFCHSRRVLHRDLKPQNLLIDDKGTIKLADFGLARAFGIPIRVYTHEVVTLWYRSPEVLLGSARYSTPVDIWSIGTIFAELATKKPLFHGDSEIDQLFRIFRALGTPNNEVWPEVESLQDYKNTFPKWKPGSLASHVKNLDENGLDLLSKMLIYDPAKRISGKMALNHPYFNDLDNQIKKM
Chain of Cofilin-1 (Homo sapiens) (P23528 whole entry, the tested form may be a part): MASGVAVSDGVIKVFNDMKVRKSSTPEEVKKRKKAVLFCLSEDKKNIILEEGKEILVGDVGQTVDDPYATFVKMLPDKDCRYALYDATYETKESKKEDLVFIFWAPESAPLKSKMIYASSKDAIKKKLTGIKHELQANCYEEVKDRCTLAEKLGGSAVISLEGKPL
Chain of Transcription factor Jun (Homo sapiens) (P05412 whole entry, the tested form may be a part): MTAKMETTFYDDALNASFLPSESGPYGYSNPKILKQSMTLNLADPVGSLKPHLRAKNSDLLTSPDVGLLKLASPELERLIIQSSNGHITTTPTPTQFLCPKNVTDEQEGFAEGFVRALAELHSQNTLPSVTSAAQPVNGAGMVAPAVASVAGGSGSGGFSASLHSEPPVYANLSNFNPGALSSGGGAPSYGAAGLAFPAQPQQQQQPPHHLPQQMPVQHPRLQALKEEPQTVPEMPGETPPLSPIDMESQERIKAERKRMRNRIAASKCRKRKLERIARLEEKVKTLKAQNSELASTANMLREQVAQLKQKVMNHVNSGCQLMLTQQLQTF

O=S(=O)(NCCNC/C=C/c1ccc(Br)cc1)c1cccc2cnccc12
fold change (FC) (PC-3 [1]): 1.028

CC[C@H](C)[C@@H](CO[C@@H](Cc1ccccc1)C(=O)N[C@@H](CCS(C)(=O)=O)C(=O)OC(C)C)NC[C@@H](N)CS
fold change (FC) (PC-3 [2]): 0.719

NC1=NC(=O)/C(=C2/CCNC(=O)c3[nH]ccc32)N1
fold change (FC) (PC-3 [3]): 1.007

CCCc1nc(C)c2c(=O)nc(-c3cc(S(=O)(=O)N4CCN(CC)CC4)ccc3OCC)[nH]n12
fold change (FC) (PC-3 [4]): 1.058

Cc1ccc(NC(=O)c2cccc(N(C)C)c2)cc1NC(=O)c1ccc(O)cc1
fold change (FC) (PC-3 [3]): 0.97

CCCc1nn(C)c2c(=O)[nH]c(-c3cc(S(=O)(=O)N4CCN(C)CC4)ccc3OCC)nc12
fold change (FC) (PC-3 [4]): 1.037

CC(C)C[C@H](NC(=O)c1ccc(NCc2c[nH]cn2)cc1-c1cccc2ccccc12)C(=O)O
fold change (FC) (PC-3 [3]): 0.966

Ic1cccc(CSc2nnc(-c3ccncc3)o2)c1
fold change (FC) (PC-3 [4]): 1.095

NS(=O)(=O)c1ccc(-n2nc(C(F)(F)F)cc2-c2ccccc2)cc1
fold change (FC) (PC-3 [5]): 1.023

Cc1ccc(S(=O)(=O)/C=C/C#N)cc1
Activity [6]: Active
fold change (FC) (PC-3 [2]): 0.231

CNc1cc2c(Nc3cccc(Br)c3)ncnc2cn1
fold change (FC) (PC-3 [4]): 1.022

Br.Cc1ccc(C(=O)Cn2c3c(sc2=N)CCCC3)cc1
fold change (FC) (PC-3 [7]): 0.424

COc1cc2ncc(-c3ccccc3)nc2cc1OC
fold change (FC) (PC-3 [3]): 0.94

CN1CC(=O)N2[C@H](c3ccc4c(c3)OCO4)c3[nH]c4ccccc4c3C[C@@H]2C1=O
fold change (FC) (PC-3 [4]): 1.052

C(=C\c1ccccc1)/CN1CCN(C(c2ccccc2)c2ccccc2)CC1
Activity [6]: Active
Activity [8]: Active
Activity [9]: Active
Activity (Cofilin-1 (Homo sapiens)): Active

CCCCCCCCCCCCC/C=C/[C@H](O)[C@@H](CO)NC(C)=O [ACETYL CERAMIDE]
fold change (FC) (PC-3 [2]): 0.787

CC(C)(C)NCC(O)c1ccc(O)c(CO)c1 (stereo unspecified) [ALBUTEROL]
fold change (FC) (PC-3 [1]): 0.926

CCC1(c2ccc(N)cc2)CCC(=O)NC1=O (stereo unspecified) [AMINOGLUTETHIMIDE]
fold change (FC) (PC-3 [10]): 0.979

O=c1cc(-c2ccc(O)cc2)oc2cc(O)cc(O)c12 [APIGENIN]
fold change (FC) (PC-3 [7]): 0.552

CC(C)c1c(C(=O)Nc2ccccc2)c(-c2ccccc2)c(-c2ccc(F)cc2)n1CC[C@@H](O)C[C@@H](O)CC(=O)O [ATORVASTATIN]
fold change (FC) (PC-3 [10]): 0.264

CC(O)(CS(=O)(=O)c1ccc(F)cc1)C(=O)Nc1ccc(C#N)c(C(F)(F)F)c1 (stereo unspecified) [BICALUTAMIDE]
fold change (FC) (PC-3 [5]): 1.005

Cn1c(=O)c2c(ncn2C)n(C)c1=O [CAFFEINE]
fold change (FC) (PC-3 [7]): 0.952

CC[C@@]1(O)C(=O)OCc2c1cc1n(c2=O)Cc2cc3ccccc3nc2-1 [CAMPTOTHECIN]
fold change (FC) (PC-3 [5]): 0.258

Cc1ccc(-c2cc(C(F)(F)F)nn2-c2ccc(S(N)(=O)=O)cc2)cc1 [CELECOXIB]
fold change (FC) (PC-3 [2]): 0.902

COCc1c(C(C)C)nc(C(C)C)c(/C=C/[C@@H](O)C[C@@H](O)CC(=O)O)c1-c1ccc(F)cc1 [CERIVASTATIN]
fold change (FC) (PC-3 [10]): 0.254

CC(C)(Oc1ccc(C2CC2(Cl)Cl)cc1)C(=O)O (stereo unspecified) [CIPROFIBRATE]
Activity [11]: Active
fold change (FC) (PC-3 [10]): 1.047

CC(C)(C)NCC(O)c1cc(Cl)c(N)c(Cl)c1 (stereo unspecified) [CLENBUTEROL]
fold change (FC) (PC-3 [1]): 0.963

Clc1ccccc1C(c1ccccc1)(c1ccccc1)n1ccnc1 [CLOTRIMAZOLE]
Activity [6]: Active
Activity [8]: Active
Activity [9]: Active
Activity (Cofilin-1 (Homo sapiens)): Active
fold change (FC) (PC-3 [2]): 0.708

CN1CCN(C2=Nc3cc(Cl)ccc3Nc3ccccc32)CC1 [CLOZAPINE]
fold change (FC) (PC-3 [1]): 0.977

C[C@@H]1C[C@H]2[C@@H]3CCC4=CC(=O)C=C[C@]4(C)[C@@]3(F)[C@@H](O)C[C@]2(C)[C@@]1(O)C(=O)CO [DEXAMETHASONE]
fold change (FC) (PC-3 [5]): 1.127

C[C@]12CC[C@@H]3c4ccc(O)cc4CC[C@H]3[C@@H]1CC[C@@H]2O [ESTRADIOL]
fold change (FC) (PC-3 [5]): 0.997

CC(C)n1c(/C=C/C(O)CC(O)CC(=O)O)c(-c2ccc(F)cc2)c2ccccc21 (stereo unspecified) [FLUVASTATIN]
fold change (FC) (PC-3 [10]): 0.255

C[C@]12CC[C@@H]3c4ccc(O)cc4C[C@@H](CCCCCCCCC[S+]([O-])CCCC(F)(F)C(F)(F)F)[C@H]3[C@@H]1CC[C@@H]2O (stereo partly specified) [FULVESTRANT]
fold change (FC) (PC-3 [5]): 1.068

Cc1ccc(C)c(OCCCC(C)(C)C(=O)O)c1 [GEMFIBROZIL]
Activity [11]: Active
fold change (FC) (PC-3 [10]): 1.046

Cc1ccc(NC(=O)c2ccc(CN3CCN(C)CC3)cc2)cc1Nc1nccc(-c2cccnc2)n1 [IMATINIB]
fold change (FC) (PC-3 [2]): 0.5

CC(C)NCC(O)c1ccc(O)c(O)c1 (stereo unspecified) [ISOPROTERENOL]
fold change (FC) (PC-3 [1]): 0.955

CC(=O)N1CCN(c2ccc(OCC3COC(Cn4ccnc4)(c4ccc(Cl)cc4Cl)O3)cc2)CC1 (stereo unspecified) [KETOCONAZOLE]
fold change (FC) (PC-3 [10]): 1.066

CC1(C)CCC2=C(O1)c1ccccc1C(=O)C2=O [LAPACHONE]
fold change (FC) (PC-3 [1]): 0.243

c1ccc([C@H]2CN3CCSC3=N2)cc1 [LEVAMISOLE]
fold change (FC) (PC-3 [2]): 1.028

CC[C@H](C)C(=O)O[C@H]1C[C@@H](C)C=C2C=C[C@H](C)[C@H](CC[C@@H]3C[C@@H](O)CC(=O)O3)[C@H]21 [LOVASTATIN]
fold change (FC) (PC-3 [10]): 0.25

O=c1cc(N2CCOCC2)oc2c(-c3ccccc3)cccc12 [LY-294002]
fold change (FC) (PC-3 [12]): 0.33

CCCCCCCC/C=C\CCCCCCCC(=O)OC[C@@H](O)COP(=O)(O)O [LYSOPHOSPHATIDIC ACID]
fold change (FC) (PC-3 [3]): 1.018

CC[C@H](C)C(=O)O[C@H]1CCC=C2C=C[C@H](C)[C@H](CC[C@@H]3C[C@@H](O)CC(=O)O3)[C@H]21 [MEVASTATIN]
fold change (FC) (PC-3 [10]): 0.243

Cc1cc2c(s1)Nc1ccccc1N=C2N1CCN(C)CC1 [OLANZAPINE]
fold change (FC) (PC-3 [1]): 1.059

Fc1ccc([C@@H]2CCNC[C@H]2COc2ccc3c(c2)OCO3)cc1 [PAROXETINE]
fold change (FC) (PC-3 [2]): 0.328

O=C1C=C2C(=CCOC2O)O1 (stereo unspecified) [PATULIN]
Activity [6]: Active
Activity [8]: Active
Activity [9]: Active
Activity (Cofilin-1 (Homo sapiens)): Active
fold change (FC) (PC-3 [2]): 0.23

CC[C@H](C)C(=O)O[C@H]1C[C@H](O)C=C2C=C[C@H](C)[C@H](CC[C@@H](O)C[C@@H](O)CC(=O)O)[C@H]21 [PRAVASTATIN]
fold change (FC) (PC-3 [10]): 1.098

CC(C)NCC(O)COc1cccc2ccccc12 (stereo unspecified) [PROPRANOLOL]
fold change (FC) (PC-3 [1]): 0.986

OCCOCCN1CCN(C2=Nc3ccccc3Sc3ccccc32)CC1 [QUETIAPINE]
fold change (FC) (PC-3 [1]): 1.013

O=C(c1ccc(OCCN2CCCCC2)cc1)c1c(-c2ccc(O)cc2)sc2cc(O)ccc12 [RALOXIFENE]
fold change (FC) (PC-3 [5]): 1.06

Cc1nc2n(c(=O)c1CCN1CCC(c3noc4cc(F)ccc34)CC1)CCCC2 [RISPERIDONE]
fold change (FC) (PC-3 [1]): 1.071

CS(=O)(=O)c1ccc(C2=C(c3ccccc3)C(=O)OC2)cc1 [ROFECOXIB]
fold change (FC) (PC-3 [2]): 1.08

COc1ccc(C2CNC(=O)C2)cc1OC1CCCC1 (stereo unspecified) [ROLIPRAM]
fold change (FC) (PC-3 [12]): 1.065

CC(C)c1nc(N(C)S(C)(=O)=O)nc(-c2ccc(F)cc2)c1/C=C/[C@@H](O)C[C@@H](O)CC(=O)O [ROSUVASTATIN]
fold change (FC) (PC-3 [10]): 0.491

C[S+]([O-])c1ccc(-c2nc(-c3ccc(F)cc3)c(-c3ccncc3)[nH]2)cc1 (stereo unspecified) [SB-203580]
fold change (FC) (PC-3 [12]): 0.721

CC[C@H](CO)Nc1nc(NCc2ccccc2)c2ncn(C(C)C)c2n1 [SELICICLIB]
fold change (FC) (PC-3 [3]): 0.797

CCC(C)(C)C(=O)O[C@H]1C[C@@H](C)C=C2C=C[C@H](C)[C@H](CC[C@@H]3C[C@@H](O)CC(=O)O3)[C@H]21 [SIMVASTATIN]
fold change (FC) (PC-3 [10]): 0.239

CC/C(=C(\c1ccccc1)c1ccc(OCCN(C)C)cc1)c1ccccc1 [TAMOXIFEN]
fold change (FC) (PC-3 [5]): 1.041

CC(C)(C)c1ccc(C(O)CCCN2CCC(C(O)(c3ccccc3)c3ccccc3)CC2)cc1 (stereo unspecified) [TERFENADINE]
fold change (FC) (PC-3 [2]): 0.212

CN(C)CCOc1ccc(/C(=C(/CCCl)c2ccccc2)c2ccccc2)cc1 [TOREMIFENE]
fold change (FC) (PC-3 [5]): 1.001

CC1=C(/C=C/C(C)=C/C=C/C(C)=C/C(=O)O)C(C)(C)CCC1 [TRETINOIN]
fold change (FC) (PC-3 [3]): 0.969

CC(/C=C/C(=O)NO)=C\[C@@H](C)C(=O)c1ccc(N(C)C)cc1 [TRICHOSTATIN]
fold change (FC) (PC-3 [3]): 0.268

Cc1onc(-c2ccccc2)c1-c1ccc(S(N)(=O)=O)cc1 [VALDECOXIB]
fold change (FC) (PC-3 [2]): 1.048

COC[C@H]1OC(=O)c2coc3c2[C@@]1(C)C1=C(C3=O)[C@@H]2CCC(=O)[C@@]2(C)C[C@H]1OC(C)=O [WORTMANNIN]
fold change (FC) (PC-3 [5]): 0.856

C[C@@H](N)[C@H]1CC[C@H](C(=O)Nc2ccncc2)CC1 [Y-27632]
fold change (FC) (PC-3 [12]): 0.958

O=C1Cc2cc(CCN3CCN(c4nsc5ccccc45)CC3)c(Cl)cc2N1 [ZIPRASIDONE]
fold change (FC) (PC-3 [1]): 1.017

NS(=O)(=O)Cc1noc2ccccc12 [ZONISAMIDE]
fold change (FC) (PC-3 [3]): 1.035

From ChEMBL document CHEMBL1221184, “Identifying off-target effects and hidden phenotypes of drugs in human cells” (Nat Chem Biol, 2006)
